Experimental data: paper PMC8557901 (Microbiology Spectrum, 2021)
Structures can show the parent of a compound that is named as a salt.

Assays:
[1] = tested on: P. yoelii in HepG2-CD81 cells; assay: Hepatic stage of P. yoelii in HepG2-CD81 cells; assay type: cell-based; settings: Plasmodium yoelii; hepatic schizonts
Description: Hepatocytes were seeded into collagen-coated black 96-well plates and maintained at 37°C in 5% CO2 in complete medium. […] The infected culture plates were centrifuged for 10 min at 900 × g, allowing fast parasite sedimentation, and further incubated with serial dilutions of M1. […] DMSO was used as a negative control. The number, size, and shape of the parasites were determined using a CellInsight high-content screening platform equipped with Studio HCS software (ThermoFisher Scientific). The parasite immunostaining was done using an […]70 antibody raised in mice and a secondary anti-mouse antibody coupled to Alexa Fluor 488 ([43]). […] Thirty-seven images, representing more than 95% of the total bottom surface area of a culture well in 96-well plates, were captured for analysis. The custom script used for counting and measuring parasites first required identification of the objects based on a fluorescence intensity threshold. The object identity was then further validated based on size and morphological (shape) criteria. The presence of DAPI-associated fluorescence in the selected objects allowed their final selection and the rejection of false positives. […] The parasitic size reduction was calculated on the average object area using the total surface area of each selected object (μm^2).

[2] = Cytotoxicity on HepG2 cell line (MTT); assay type: cell-based; settings: human, HepG2 cells
Description: The evaluation of the cytotoxicity of the tested molecules on the HepG2 cell line was performed according to the method of Mosman ([42]) with slight modifications. […] Triplicate assays were performed for each sample. Each well was then examined under a microscope to detect possible precipitate formation before the medium was aspirated from the wells. An amount of 100 μl of MTT solution (0.5 mg/ml in medium without FBS) was then added to each well. […] After this time, the MTT solution was removed and DMSO (100 μl) was added to dissolve the resulting blue formazan crystals. Plates were shaken vigorously (700 rpm) for 10 min. The absorbance was measured at 570 nm with 630 nm as the reference wavelength using a Tecan Infinite F-200 microplate reader. DMSO was used as a blank and doxorubicin as a positive control. Cell viability was calculated as the percentage compared to the control (cells incubated without compound). […] CC50 values represent the mean values calculated from three independent experiments.

[3] = tested on: P. falciparum strain K1 in RBC; assay: In vitro chemosensitivity assay, blood stage P. falciparum K1 (SYBR green I); assay type: cell-based; settings: Plasmodium falciparum, K1; erythrocytic stage, 72 h; read-out: EC50 (μM) for P. falciparum strain K1 in RBC
Description: Maintenance in continuous culture was done as described previously by Trager and Jensen ([46]). Cultures were maintained in fresh A+ human erythrocytes (EFS [French Blood Bank]) at 2.5% hematocrit in complete medium (RPMI 1640 with 25 mM HEPES, 25 mM NaHCO3, 10% A+ human serum) at 37°C under a reduced-O2 atmosphere (gas mixture of 10% O2, 5% CO2, and 85% N2). Parasitemia was maintained daily between 1% and 3%. The P. falciparum drug susceptibility test was carried out by comparing quantities of DNA in treated and control cultures of parasites in human erythrocytes according to a SYBR green I fluorescence-based method ([50]) using a 96-well fluorescence plate reader. Compounds, previously dissolved in DMSO (final concentration, less than 0.5% vol/vol), were incubated in a total assay volume of 200 μl of synchronized culture suspension (2% hematocrit and 0.4% parasitemia) for 72 h in a humidified atmosphere (85% N2, 10% O2, and 5% CO2) at 37°C in 96-well flat-bottom plates. Duplicate assays were performed for each sample. After incubation, plates were frozen at −20°C for 24 h. Then, the frozen plates were thawed for 1 h at 37°C. Fifteen microliters of each sample was transferred to 96-well flat-bottom black plates (Greiner Bio-one) already containing 15 μl of the SYBR green I lysis buffer (2× SYBR green I, 20 mM Tris base, pH 7.5, 20 mM EDTA, 0.008% [wt/vol] saponin, 0.08% [wt/vol] Triton X-100). […] Plates were incubated for 15 min at 37°C and then read on a Tecan Infinite F-200 spectrophotometer with excitation and emission wavelengths at 485 and 535 nm, respectively. […] EC50K1 values represent the mean values calculated from three independent experiments.

[4] = tested on: P. yoelii liver-stage parasites in murine primary hepatocytes; assay: In vitro liver-stage development, P. yoelii in murine primary hepatocytes; assay type: cell-based, Plasmodium yoelii
From the text: P. yoelii 230-GFP-Luc sporozoites are mutant parasites expressing a green fluorescent protein (GFP)-luciferase cassette generated by the gene out marker out (GOMO) strategy ([39]).
(§1) Primary human hepatocytes were isolated from liver segments obtained from adult patients undergoing partial hepatectomy (Service de Chirurgie Digestive, Hépato-Bilio Pancréatique, Hôpital Pitié Salpêtrière, Paris, France). Primary simian hepatocytes were isolated from liver segments collected from healthy Macaca fascicularis monkeys from CEA, Fontenay aux Roses, France. All hepatocytes were obtained using collagenase perfusion as previously described ([40]). […] Primary murine hepatocytes were isolated from liver segments collected from BALB/c mice. Human and murine hepatocytes were used directly after their isolation. Cells were seeded in 96-well plates (Falcon; Becton Dickinson Labware Europe, France) coated with collagen I (BD Bioscience, USA) at a density of 80,000 cells per well. […] For human hepatocytes, the complete medium was supplemented with 2% dimethyl sulfoxide (DMSO; Sigma-Aldrich, USA) before infection to preserve their differentiation.
(§2) On the day of infection, 3 · 10^4 sporozoites of P. falciparum, P. yoelii, and P. cynomolgi were added to their respective host cell cultures (human, murine, and simian). The infected culture plates were centrifuged for 10 min at 900 × g, allowing fast parasite sedimentation, and further incubated with serial dilutions of M1. Culture medium containing the appropriate drug concentration was refreshed daily, and cells were fixed at 48 h postinfection (p.i.) for infections with P. yoelii, 6 days p.i. for P. falciparum, or 8 days p.i. for P. cynomolgi. For the in vitro sporozoite invasion experiments, P. falciparum sporozoites were preincubated with 1, 10, and 100 μM M1 for 1 h at room temperature before hepatocyte infections. Three hours later, after sporozoite penetration into hepatocytes, cultures were washed and then further incubated with or without the presence of the drug during 6 days. DMSO was used as a negative control.
(§3) The number, size, and shape of the parasites were determined using a CellInsight high-content screening platform equipped with Studio HCS software (ThermoFisher Scientific). […] Host cell and parasite nuclei were labeled with DAPI (4′,6-diamidino-2-phenylindole). […] The custom script used for counting and measuring parasites first required identification of the objects based on a fluorescence intensity threshold. The object identity was then further validated based on size and morphological (shape) criteria. The presence of DAPI-associated fluorescence in the selected objects allowed their final selection and the rejection of false positives. […] The parasitic size reduction was calculated on the average object area using the total surface area of each selected object (μm^2).

[5] = tested on: P. yoelii (GFP-luc strain); assay: In vivo liver-stage assay in mice infected with P. yoelii sporozoites; parameters: species or system BALB/c mice; settings: 50 mg/kg; blood smears days 3 and 6
Description: Five mice per treatment group were used. Experimental groups were treated with 50 and 100 mg/kg of M1 intraperitoneally (i.p.). Untreated infected mice and noninfected mice (infection controls), as well as primaquine-treated (50 mg/kg) mice (control drug), were also included. The drugs were administered on days −1, 0, and +1, and mice were challenged on day zero by retroorbital injection of P. yoelii (GFP-luc strain) sporozoites (10,000 per mouse). In vivo bioluminescence imaging was performed 44 h postinfection on day 2, to assess liver-stage development. When parasites were detected in the liver, treatment was continued until day 5 and in vivo imaging was performed on days 3 and 6, to evaluate a prepatent period for the blood-stage parasites in mice after the sporozoite inoculation. In vivo imaging and blood smears were performed to monitor blood-stage development using methods described previously ([45]). This experiment was performed twice.
IVIS Spectrum (Caliper Life Science, Hanover, MD) was used to capture bioluminescence signals. Prior to analysis, the mice were injected i.p. with D-luciferin (100 mg/kg), anesthetized with isoflurane, and imaged 10 min postinjection. Images were analyzed using the Living Image 3.0 software (Caliper Life Sciences, Hanover, MD).
In order to study the in vivo efficacy of M1 without any hepatic CYP metabolism, we conducted an experiment using 1-aminobenzotriazole (ABT), a nonselective inhibitor of cytochrome P450 enzymes ([34], [35]). ABT was administered to mice i.p. 1 h before each treatment with 50 mg/kg gamhepathiopine for 3 days starting from the day before sporozoite inoculation.

[6] = tested on: P. cynomolgi liver-stage parasites in simian primary hepatocytes; assay: In vitro liver-stage development, P. cynomolgi in simian primary hepatocytes; assay type: cell-based, Plasmodium cynomolgi
From the text: as §1, §2, §3

[7] = tested on: P. falciparum liver-stage parasites in human primary hepatocytes; assay: In vitro liver-stage development, P. falciparum in human primary hepatocytes; assay type: cell-based, Plasmodium falciparum
From the text: as §1, §2, §3

[8] = tested on: P. falciparum sporozoites invading primary human hepatocytes; assay: Hepatocyte invasion by preincubated P. falciparum sporozoites; settings: reference compound; all concentrations tested
Description: as §2, §3

Row | SMILES | melting point | EC50 [1] | EC50 [3] | CC50 at 72 h [2] | also measured
1 | O=C1C(O)=C([C@H]2CC[C@H](c3ccc(Cl)cc3)CC2)C(=O)c2ccccc21 [Atovaquone, reference compound] | – | 0.003 µM | 0.001 µM | > 15.6 µM | –
2 | COc1cccc2c1C(=O)c1c(O)c3c(c(O)c1C2=O)C[C@@](O)(C(=O)CO)C[C@@H]3O[C@H]1C[C@H](N)[C@H](O)[C@H](C)O1 [Doxorubicin, reference compound] | – | – | – | 0.2 µM | –
3 | C[C@H]1c2cccc(O)c2C(=O)C2=C(O)[C@]3(O)C(=O)C(C(N)=O)=C(O)[C@@H](N(C)C)[C@@H]3[C@@H](O)[C@@H]21 [Doxycycline, reference compound] | – | – | 6 µM | 20 µM | –
4 | CC(C)(C)Nc1nc2cc(-c3ccc(CO)cc3)sc2c(=O)[nH]1 [Metabolite 7, 2-(tert-Butylamino)-6-(4-(hydroxymethyl)phenyl)thieno[3,2-d]pyrimidin-4(3H)-one] | 264 °C | 1 µM | 0.4 µM | 25 µM | –
5 | COc1cc(NC(C)CCCN)c2ncccc2c1 (stereo not shown) [Primaquine, reference compound] | – | 3.6 µM | – | – | EC50 ([4]; Plasmodium yoelii, Hepatocyte, read-out: EC50 against liver-stage parasites): 640 ± 100 nM; SI (selectivity index) ([4]; hepatocyte CC50/EC50, P. yoelii (MH)): 110; blood-stage parasitemia after sporozoite infection [5]: remained clear of parasitemia; EC50 ([6]; Plasmodium cynomolgi, Hepatocyte, P. cynomolgi in simian primary hepatocytes (SH), mean ± SEM of triplicate experiments, read-out: EC50 against liver-stage parasites): 2720 ± 340 nM; SI (selectivity index) ([6]; hepatocyte CC50/EC50, P. cynomolgi (SH)): 12; Size reduction at 10 μM (%) ([6]; parasite (schizont) size, 10 μM, P. cynomolgi (SH)): 70%; EC50 ([7]; Plasmodium falciparum, Hepatocyte, P. falciparum in human primary hepatocytes (HH), mean ± SEM of triplicate experiments, read-out: EC50 against liver-stage parasites): 600 ± 60 nM; SI (selectivity index) ([7]; hepatocyte CC50/EC50, P. falciparum (HH)): 66; Size reduction at 10 μM (%) ([7]; parasite (schizont) size, 10 μM, P. falciparum (HH)): 100%; percentage of inhibition of hepatocyte invasion [8]: 100%

The next lines start with results.

Row | melting point | EC50 [1] | EC50 [3] | SMILES | CC50 at 72 h [2] | also measured
6 | > 300 °C | – | – | CC(C)(C)Nc1nc2cc(-c3ccc(C(=O)O)cc3)sc2c(=O)[nH]1 (as salt: hydrochloride) [Metabolite 10, 4-(2-(tert-Butylamino)-4-oxo-3,4-dihydrothieno[3,2-d]pyrimidin-6-yl)benzoic acid] | – | –
7 | 296 °C | – | 3.1 µM | CC(C)(C)Nc1nc2cc(-c3ccc(C=O)cc3)sc2c(=O)[nH]1 [Metabolite 8, 4-(2-(tert-Butylamino)-4-oxo-3,4-dihydrothieno[3,2-d]pyrimidin-6-yl)benzaldehyde] | 25.3 µM | –
8 | – | > 10 µM | > 10 µM | CC(C)(C)Nc1nc2cc(-c3ccc(C(=O)O)cc3)sc2c(=O)[nH]1 [Metabolite 10, 4-(2-(tert-Butylamino)-4-oxo-3,4-dihydrothieno[3,2-d]pyrimidin-6-yl)benzoic acid] | > 10 µM | –
